Laboratory results reported in US6953577B2, “Human methionine aminopeptidase type 3” (Pharmacia Corporation, priority 1999, dated 2005).

What was measured:
[1] = target: recombinant human MetAP-1 (Homo sapiens, UniProt P53582); assay: Methionine aminopeptidase activity assay (methionine release from tripeptide, coupled L-amino acid oxidase/Amplex Red)
Protocol: (§1) Hydrogen peroxide, produced by the L-amino acid oxidase reaction, was measured by monitoring the formation of resorufin from Amplex Red in a reaction catalyzed by of horseradish peroxidase. […] The reaction was performed in a 96-well plate format at ambient temperature using the following assay buffer: 20 mM HEPES-Na pH 7.5, 100 mM NaCl, 0.1 mM CoCl2 containing 100 μM Amplex Red, 0.15 U/ml L-amino acid oxidase, 0.5 U/ml horseradish peroxidase.
(§2) The ability of fumagillin to inhibit each of the recombinant human MetAPs was determined by adding 0.6 nM-500 μM fumagillin at the start of the reaction. The IC50 values were determined under conditions in which enzyme concentration and reaction time were linear.

[2] = target: T1, MetAP-2 (Homo sapiens, UniProt P50579); assay: as above
Protocol: as §1, §2
Target sequence in this assay (P50579 whole entry): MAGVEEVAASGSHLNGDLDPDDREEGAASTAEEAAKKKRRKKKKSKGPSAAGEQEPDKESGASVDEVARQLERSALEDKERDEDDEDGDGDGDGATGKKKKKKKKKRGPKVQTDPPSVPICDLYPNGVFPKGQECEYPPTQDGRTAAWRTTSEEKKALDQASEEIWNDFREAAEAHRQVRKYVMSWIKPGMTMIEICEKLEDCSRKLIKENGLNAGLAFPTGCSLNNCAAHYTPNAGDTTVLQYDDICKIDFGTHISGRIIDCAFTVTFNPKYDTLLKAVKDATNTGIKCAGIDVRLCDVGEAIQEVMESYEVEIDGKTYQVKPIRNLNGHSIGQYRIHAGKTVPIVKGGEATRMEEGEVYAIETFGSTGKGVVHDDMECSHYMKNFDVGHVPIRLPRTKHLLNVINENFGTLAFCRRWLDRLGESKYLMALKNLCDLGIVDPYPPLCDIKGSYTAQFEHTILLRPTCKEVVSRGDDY

[3] = target: type-1 enzyme (MetAP-1) (Homo sapiens, UniProt P53582); conditions: cited from earlier work
[4] = target: T1, MetAP-2; conditions: cited from earlier work
Target sequence in this assay (P50579 whole entry, species assumed): as the sequence (P50579 whole entry) above

[5] = system: endothelial cell proliferation; conditions: cited from earlier work
[6] = target: T2, recombinant human MetAP-3 (Homo sapiens, UniProt Q6UB28); assay: Methionine aminopeptidase activity assay (methionine release from tripeptide, coupled L-amino acid oxidase/Amplex Red); format: biochemical; conditions: for Cleaved / Vmax: tripeptide as substrate of recombinant human MetAP-3
T2 construct: The coding region of hMetAP-3 was also cloned into the EcoRI/HindIII sites of the pET43a vector and expressed as a fusion protein; NusA (N, cleaved yes); 6xHis (N, cleaved yes); made in house; host or cells: E. coli Tuner (DE3)plysS, pET43a
Protocol: as §1, §2

[7] = in vivo, cited from earlier work

T2 sequence (Q6UB28 20-335): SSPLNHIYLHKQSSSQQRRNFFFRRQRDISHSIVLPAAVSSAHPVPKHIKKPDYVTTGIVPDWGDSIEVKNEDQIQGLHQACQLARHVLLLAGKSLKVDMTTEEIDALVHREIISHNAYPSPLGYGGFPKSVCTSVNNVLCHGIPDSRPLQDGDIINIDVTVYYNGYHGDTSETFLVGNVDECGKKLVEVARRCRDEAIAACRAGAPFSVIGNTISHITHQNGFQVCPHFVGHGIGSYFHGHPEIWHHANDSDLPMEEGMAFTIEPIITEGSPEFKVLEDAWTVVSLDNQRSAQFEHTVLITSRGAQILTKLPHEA

| Compound | Cleaved [6] | Vmax [6] [Abs × 1000/min] | Inhibition of type-1 enzyme (in words) [3] | Binding and inhibition of MetAP-2 (in words) [4] | other results |
| --- | --- | --- | --- | --- | --- |
| CO[C@@H]1[C@H](OC(=O)/C=C/C=C/C=C/C=C/C(=O)O)CC[C@]2(CO2)[C@H]1[C@@]1(C)O[C@@H]1CC=C(C)C [Fumagillin, fumagillin] |  |  | but not the type-1 enzyme | irreversibly bind and potently inhibit | IC50 [1]: 33 µM; IC50 [2]: 0.005 µM; Inhibition of endothelial cell proliferation (in words) [5]: potent inhibitor of endothelial cell proliferation; Inhibition of MetAP-3 by fumagillin (in words) [6]: not inhibited by fumagillin; IC50 ([6]; read-out: Fumagillin IC50): > 500 µM |
| CO[C@@H]1[C@H](OC(=O)NC(=O)CCl)CC[C@]2(CO2)[C@H]1[C@@]1(C)O[C@@H]1CC=C(C)C [TNP-470] |  |  | but not the type-1 enzyme | irreversibly bind and potently inhibit | Potency relative to fumagillin [5]: 50 fold; Oral availability (in words) ([7]; po): lack of oral availability; Toxicity (in words) [7]: dose-limiting neurotoxicity |
| CO[C@@H]1C(=O)CC[C@]2(CO2)[C@@]1(O)[C@@]1(C)O[C@@H]1CC=C(C)C [ovalicin] |  |  | but not the type-1 enzyme |  |  |
| MGG: synthesized tripeptide evaluated as substrate for MetAP-3 | cleaved and Yes | 134 |  |  | Activity with MGG relative to MAS as substrate [6]: twice as high |

More lines, main results first:

| Cleaved [6] | Vmax [6] [Abs × 1000/min] | Compound | Inhibition of type-1 enzyme (in words) [3] | Binding and inhibition of MetAP-2 (in words) [4] | other results |
| --- | --- | --- | --- | --- | --- |
| No | 0.7 | GGG: synthesized tripeptide evaluated as substrate for MetAP-3 |  |  |  |
| cannot cleave and No | 1.1 | MEG: synthesized tripeptide evaluated as substrate for MetAP-3 |  |  |  |
